From patent US20210317113A1, “1,2,3-TRIAZOLE DERIVATIVES AND USES THEREOF” (Alxerion Biotech LLC, priority 2020, published 2021)
Read-outs that look alike come from different tables or passages of the source.

Assays:
[1] = test system: Non-Small Lung Cancer Cells (NSLCs); experiment: Cancer migration (wound healing) assay; format: cell-based; details: for concentration at which cell migration was completely impaired: 20 mM calcium medium (FIG. 3)
Description: The ability of 1,2,3-triazole derivatives according to the disclosure to inhibit cancer cell migration and proliferation in vitro can be measured, e.g., by a wound healing assay (Rodriguez et al., in Cell Migration: Developmental Methods and Protocols, Web et al., Guan ed. Humana Press 294, 23-29). This assay is based on the observation that, upon the creation of an artificial gap on a confluent cancer cell monolayer, the cells on the edge of the created gap will start migrating and proliferating until new cell-cell contacts are established (EXAMPLE 3).
Non-Small Lung Cancer Cells (NSLCs) migration rate was assessed in an in vitro wound healing assay. This assay is based on the observation that, upon the creation of an artificial gap on a confluent cell monolayer, the cells on the edge of the created gap will start migrating and proliferating until new cell-cell contacts are established.
A confluent cell layer is a prerequisite for starting this assay. Gap formation is done manually with a scrapper and cell proliferation and migration is determined recording a time-lapse video for 20 hr. with a time interval of 30 min. The microscopic pictures are manually analyzed for obtaining information about the proliferation and migration characteristics of the cultured cells and the image analysis detects the cell covered area.
NSLCs were cultured in Eagle's Minimum Essential Medium (ATCC-formulated medium, Catalog No. 30-2003) containing fetal bovine serum at 10% during several periods. Wound healing assays with supplemented medium containing 1,2,3-triazole derivatives were performed to evaluate the inhibitory effect on proliferation and migration of cancer cells.
In order to simulate as close as possible the in vivo cancer microenvironment, human plasma and calcium were added to the cell culture system to provide the hemostatic factors normally present in the cancer stroma. The previous day, cells were seeded with 10% FBS at a number that would provide 90% confluence the next day. On Day 0, a scratch (“a wound”) was performed in the middle of the well and the 10% FBS medium was replaced with 20% plasma, 20 mM calcium medium, with or without Derivative 1. 10% FBS medium was used as control in these experiments. “Wound healing” or closure of the scratch was assessed over a period of 4 days, and cell number in the wound area was quantified for each condition. Increasing amount of Derivative 1 (LTI6) was used to attain a dose-response curve.
The cell function effect of Derivative 1 was compared with Tranexamic Acid (TNA) and Caproic Acid (CA), commercially available and widely used anti-metastasis drugs.

[2] = test system: fibrinolysis mediated by tPA (plasminogen activation by tPA); experiment: Fibrinolytic assay: one-step spectrophotometric clot lysis in human plasma; format: biochemical; details: for IC50: concentration at which 50% of total fibrinolysis mediated by tPA is inhibited, human ACD plasma, clot triggered by TF, absorbance 340 nm, read-out: Anti-fibrinolytic (SERPIN) Activity IC50; for inhibition of fibrinolysis mediated by tPA (in words): different concentrations, FIGS. 2B-2D
Method: Fibrinolytic activity in human plasma was determined by a one-step spectrophotometric method (Gidron et al. (1978) J. Clin. Pathol. 31(1):54-57) with minor modifications (see EXAMPLE 2). In this method, fibrin clot formation in anticoagulant citrate dextrose (ACD) plasma samples obtained from healthy volunteers is triggered by tissue factor (TF) and can be quantified by spectrometry as a significant increase in basal plasma absorbance at 340 nm.
As shown in FIGS. 2A-2D, in the absence of tPA, plasma absorbance remains permanently elevated.
Fibrinolytic activity in human plasmas in the presence of derivatives according to the disclosure was determined by a one-step spectrophotometric method.
Fibrin clot formation in the anticoagulant acid citrate dextrose (ACD)-treated plasma obtained from healthy volunteers is triggered by tissue factor (TF) (Thromborel S, Siemens Healthineers) and quantifies by spectrophotometry at 340 nm (using a Molecular Devices SpectraMax® M2e Multimode Microplate Reader). When recombinant human Tissue Plasminogen Activator (tPA, final concentration of 5.2 μg/ml) is simultaneously added, fibrinolysis of the clot can be determined.
Fresh blood was extracted from healthy volunteers. ACD, to reach a 10% concentration, was instantly added to the extracted blood, to prevent any unwanted coagulation. After that, blood was centrifuged for 15 min at 1,000 g. Plasma was clearly separated from red blood cells. 3 mL aliquots of aspirated plasma were immediately frozen at −20° C.
4 mL of ddH2O was added to a vial of Thromborel S and mixed thoroughly for 2 min. and left at 4° C. 500 μL TF aliquots were used for each experiment.
Representative derivatives of the present disclosure (Nos. 1, 5, and 7) were diluted in DMSO (those with Boc) or ddH2O (those with HCl) to a final concentration of 10 mM. A solution containing 1 M Tris HCl, pH 7.5 (Fisher BioReagent) (Buffer A), 0.110 g of CaCl2) in 10 mL of ddH2O (Buffer B), and tPA (Abcam, 1.3 mg/mL added into the diluted derivative solution, final concentration in serum was 5.2 μg/mL), and the derivative was prepared in a total volume of 75 μL and added to untreated, flat, clear Costar® 96-well plates in triplicate. Absorbance at 340 nm at 37° C. for 30 min was recorded every 15 sec. The plates were shaken every 3 sec in between readings. Controls for basal plasma absorbance, basal coagulation absorbance and basal fibrinolytic activity absorbance were performed in every assay.
FIG. 2A show the results a control experiment displaying the ability of TF to cause fibrin clot formation in the absence and presence of t-PA. TF was able to cause fibrin clot formation evaluated as a significant increase of the basal plasma absorbance at 340 nm.

[3] = test system: Non-Small Lung Cancer Cells (NSLCs); experiment: Trypan Blue Exclusion Test of cancer cell viability; format: cell-based; details: for IC50: defined in text as concentration of derivative causing greater than 90% of the cells to die, read-out: Anti-Cancer Activity (Trypan Blue Exclusion Assay) IC50
Method: The ability of 1,2,3-triazole derivatives according to the disclosure to kill cancer cells can be measured, e.g., by Trypan Blue Exclusion Assay which measured cell death by starvation due to the presence of the derivative (see EXAMPLE 4). The results obtained using this assay with some representative 1,2,3-triazole derivatives according to the disclosure are shown below in Table 4.
The effect of Derivative 1 on cancer cell viability was determined using the Trypan Blue Exclusion Test (Stober (2001) (Curr. Protoc. Immunol., May; Appendix 3:Appendix 3B. doi: 10.1002/0471142735.ima03bs21). The viability of Non-Small Lung Cancer Cells (NSLCs) was assessed over a period of 15 days after the promotion of coagulation with or without 200 μM of 1,2,3-triazole derivative 1 and with or without 2% human plasma. Fresh 2% FBS medium corresponding to each condition was added every 3 days. Cell death was analyzed using Trypan blue staining. 2% FBS medium was used as control. Some representative results are shown in FIGS. 4A-4F.

[4] = 96 h, NSLCs, 20% plasma, 20 mM calcium medium, wound closure over 4 days (FIG. 3), read-out: IC50 from dose response curve, cell migration
[5] = wound healing assay, dose-response curve, read-out: Anti-Cancer Activity (Inhibition of Cancer Cell Migration) IC50

| Structure (SMILES) | IC50 [1, 5] [µM] | IC50 [2] [µM] | IC50 [3] [µM] | other results |
| --- | --- | --- | --- | --- |
| CCCCCC(=O)O [CA, Caproic Acid, reference compound] |  |  |  | IC50 ([1]; 96 h, read-out: IC50 from dose response curve, cell migration): 1340 µM; concentration at which cell migration was completely impaired ([1]; NSLCs, 20% plasma): 1400 µM |
| O=c1[nH]nc(-c2cn(C3CCNCC3)nn2)o1 [Derivative 1] | 120 |  |  | IC50 ([2]; listed as 1): 50 µM; inhibition of fibrinolysis mediated by tPA (in words) [2]: completely inhibit fibrinolysis; IC50 [1, 4]: 96.1 µM; concentration at which cell migration was completely impaired ([1]; NSLCs, 20% plasma): 100 µM; potency relative to CA in inhibition of migration of cancer cells ([1]; from IC50 values, vs Caproic Acid): > 10 ×; potency relative to TNA in inhibition of migration of cancer cells ([1]; from IC50 values, vs Tranexamic Acid): > 4 ×; cell death by Trypan blue staining after 7 days (in words) ([3]; 200 μM, plasma conditions, 7 days, vs plasma alone (FIG. 4C)): even more significant; cell death by Trypan blue staining after 15 days (in words) ([3]; 200 μM, plasma conditions, 15 days, vs FBS and plasma alone (FIG. 4F)): increased cell death; IC50 ([3]; listed as 1): 250 µM |
| NCCCn1cc(-c2n[nH]c(=O)o2)nn1 [Derivative 2] | 350 | 200 | 550 |  |
| NNC(=O)c1cn(C2CCNCC2)nn1 [Derivative 3] | 230 | 180 | 410 |  |
| NCCCn1cc(C(=O)NN)nn1 [Derivative 4] | 1200 | 800 | 2100 |  |
| O=c1[nH]c(-c2cn(C3CCNCC3)nn2)no1 [Derivative 5] |  |  |  | IC50 ([2]; listed as 5): 35 µM; inhibition of fibrinolysis mediated by tPA (in words) [2]: completely inhibit fibrinolysis; IC50 ([1]; wound healing assay, dose-response curve, listed as 5, read-out: Anti-Cancer Activity (Inhibition of Cancer Cell Migration) IC50): 90 µM; IC50 ([3]; listed as 5): 150 µM |
| NCCCn1cc(-c2noc(=O)[nH]2)nn1 [Derivative 6] | 650 | 375 | 800 |  |
| NC(NO)c1cn(C2CCNCC2)nn1 (stereo not shown) [Derivative 7] | 270 | 125 | 415 | inhibition of fibrinolysis mediated by tPA (in words) [2]: completely inhibit fibrinolysis |
| NCCCn1cc(/C(N)=N/O)nn1 [Derivative 8] | 500 | 350 | 750 |  |
| N/C(Cc1cn(C2CCNCC2)nn1)=N/O [Derivative 10] | 250 | 150 | 370 |  |
| NCCCn1cc(C/C(N)=N\O)nn1 [Derivative 11] | 510 | 325 | 680 |  |
| NCCCn1cc(C(=O)O)nn1 [Derivative 13] | 125 | 75 | 170 |  |
| NCCCn1ccnn1 [Derivative 14] | 250 | 130 | 450 |  |
| NCCn1cc(C(=O)NN)nn1 [Derivative 15] | 104 | 24 | 815 |  |
| NNC(=O)c1cn(C2CCC(N)CC2)nn1 (stereo not shown) [Derivative 16] | 250 | 58 | 430 |  |
| NC1CCC(n2cc(-c3n[nH]c(=O)o3)nn2)CC1 (stereo not shown) [Derivative 17] | 650 | 320 | 1350 |  |

| Structure (SMILES) | IC50 [1, 5] [µM] | IC50 [2] [µM] | IC50 [3] [µM] | other results |
| --- | --- | --- | --- | --- |
| NCCn1cc(-c2n[nH]c(=O)o2)nn1 [Derivative 18] | 345 | 250 | 550 |  |
| NC1CCC(n2cc(-c3noc(=O)[nH]3)nn2)CC1 (stereo not shown) [Derivative 19] | 610 | 375 | 880 |  |
| NCCn1cc(-c2noc(=O)[nH]2)nn1 [Derivative 20] | 87 | 15 | 210 |  |
| O=C(O)c1nnc(-c2cn(C3CCNCC3)nn2)o1 [Derivative 21] | 100 | 35 | 150 |  |
| NCCCn1cc(-c2nnc(C(=O)O)o2)nn1 [Derivative 22] | 120 | 50 | 210 |  |
| NC1CCC(n2cc(-c3nnc(C(=O)O)o3)nn2)CC1 (stereo not shown) [Derivative 23] | 89 | 35 | 210 |  |
| NCCn1cc(-c2nnc(C(=O)O)o2)nn1 [Derivative 24] | 620 | 315 | 810 |  |
| N/C(=N\O)c1cn(C2CCC(N)CC2)nn1 (stereo not shown) [Derivative 25] | 420 | 205 | 610 |  |
| NCCn1cc(/C(N)=N/O)nn1 [Derivative 26] | 258 | 153 | 470 |  |
| N/C(Cc1cn(C2CCC(N)CC2)nn1)=N/O (stereo not shown) [Derivative 27] | 310 | 189 | 480 |  |
| NCCn1cc(C/C(N)=N\O)nn1 [Derivative 28] | 69 | 23 | 140 |  |
| NC1CCC(n2cc(C(=O)O)nn2)CC1 (stereo not shown) [Derivative 29] | 129 | 67 | 218 |  |
| NCCn1cc(C(=O)O)nn1 [Derivative 30] | 520 | 370 | 710 |  |
| NC1CCC(n2ccnn2)CC1 (stereo not shown) [Derivative 31] | 190 | 74 | 310 |  |
| NC[C@H]1CC[C@H](C(=O)O)CC1 [TNA, Tranexamic Acid, reference compound] |  |  |  | IC50 [1, 4]: 438 µM; concentration at which cell migration was completely impaired ([1]; NSLCs, 20% plasma): 250 µM |
